This is an account of results in patent US5462952A, “Fenamate 1,3,4-thiadiazoles and 1,3,4-oxadiazoles as antiinflammatory agents” (Warner-Lambert Company, priority 1993, dated 1995).

The target in one assay is T1, 5-Lipoxygenase (Rattus norvegicus, UniProt P12527).
T1 construct: host or cells: RBL-1 (rat basophilic leukemia)
T1 sequence (P12527 1-673): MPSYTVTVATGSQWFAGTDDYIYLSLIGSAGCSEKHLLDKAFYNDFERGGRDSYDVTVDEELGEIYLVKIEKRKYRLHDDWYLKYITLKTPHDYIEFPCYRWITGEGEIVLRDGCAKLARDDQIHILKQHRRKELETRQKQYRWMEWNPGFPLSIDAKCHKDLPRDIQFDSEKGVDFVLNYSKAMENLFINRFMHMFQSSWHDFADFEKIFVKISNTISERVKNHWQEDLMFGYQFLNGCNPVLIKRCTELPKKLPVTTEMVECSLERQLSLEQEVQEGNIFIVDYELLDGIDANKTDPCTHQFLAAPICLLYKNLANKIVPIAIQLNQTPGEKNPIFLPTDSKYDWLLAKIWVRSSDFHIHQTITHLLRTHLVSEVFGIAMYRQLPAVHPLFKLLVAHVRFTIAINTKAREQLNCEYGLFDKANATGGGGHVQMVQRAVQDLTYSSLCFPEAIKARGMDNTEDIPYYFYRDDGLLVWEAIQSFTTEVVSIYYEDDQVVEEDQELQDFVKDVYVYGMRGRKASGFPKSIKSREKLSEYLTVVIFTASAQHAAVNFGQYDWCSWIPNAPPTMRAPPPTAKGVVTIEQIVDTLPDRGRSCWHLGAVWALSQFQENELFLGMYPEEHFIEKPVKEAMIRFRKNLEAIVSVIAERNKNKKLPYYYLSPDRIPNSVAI
Kind of assay: ARBL whole cell 5-lipoxygenase assay (LTB4 formation in RBL-1 cells, A23187-stimulated). The class given is cell-based. On the set-up: key to ARBL, activity at the screening dose: Not active at the screening dose. The note with it: for IC50: Table 2; for ARBL, activity at the screening dose: Table 2, screening dose, class symbol N; for inhibition at 10 µM: Table 2, @ 10 μM. Here is the method: (§1) The rat basophilic leukemia cell line (RBL-1) was obtained from the American Type Culture Collection (Rockville, Md.).
(§2) Radioimmunoassay (RIA) kits of LTB4 and PGF2α were obtained from Amersham (Arlington Heights, Ill.) and Seragen (Boston, Mass.), respectively.
(§3) RBL-1 cells are grown in suspension culture in Eagle's minimum essential medium supplemented with 12% fetal bovine serum at 37° C. in an incubator supplied with air-5% carbon dioxide. Cells are harvested by centrifugation. They are washed with cold phosphate buffered saline pH 7.4 (PBS; NaCl, 7.1 g; Na2 HPO4, 1.15 g; KH2 PO4, 0.2 g; and KCl, 0.2 g/l). Cells are finally suspended in PBS containing 1.0 mM calcium at a density of 2×10^6 cells/ml. Cells are incubated with and without test agent (in DMSO) (1% DMSO is without effect on arachidonic acid metabolism) for ten minutes at room temperature. Calcium ionophore A23187 (5 μM) is added and cells are incubated for seven minutes at 37° C. The reaction is stopped by chilling the tubes on ice for ten minutes. Cells are separated by centrifugation and the supernatant is stored at -20°. Aliquots (100 μl) are analyzed for LTB4 and PGF2α using radioimmunoassay kits as provided by the supplier.
(§4) Tables 1 and 2 contain biochemical data obtained from the whole cell assay described above as IC50 s which are calculated as the concentration of test compound causing 50% inhibition of LTB4 or PGF2α formation. Table 2 also provides the dose at which 40% of swelling is inhibited in the CFE-2 assay.

In another assay the test system is Cyclooxygenase. Description: ARBC whole cell cyclooxygenase assay (PGF2α formation in RBL-1 cells, A23187-stimulated). In kind it is cell-based, rat. On the set-up: key to ARBC, activity at the screening dose: Not active at the screening dose. The note with it: for ARBC, activity at the screening dose: Table 2, screening dose. How it is done: as §1, §2, §3, §4

Setting [1] is: Table 1, 16 μM, read-out: ARBL, % inhibition of LTB4 at 16 μM.
Where [2] appears, read: read-out: ARBL, % inhibition at given concentration.

Where a name gives a salt, the structure may show the parent alone. Read-outs that look alike come from different tables or passages of the source.

With `S=c1[nH]nc(Cc2ccccc2Nc2c(Cl)cccc2Cl)o1` [Example 7, 5-[[2-[(2,6-Dichlorophenyl)amino]phenyl]methyl]-1,3,4-oxadiazol-2(3H)-thion], the inhibition at 16 µM at 5-Lipoxygenase (setting [1]) stood at 88%. Besides, the “ARBC, % inhibition of PGF2α at 16 μM” value in the assay on Cyclooxygenase (Table 1, 16 μM, class symbol N) is recorded as “N (Less than 40% inhibition at 16 μM)”.
Regarding `Cc1ccc(Cl)c(Nc2ccccc2-c2nnc([S+](C)[O-])o2)c1Cl` (stereo not shown) [Example 21, 2,6-Dichloro-3-methyl-N-[2-[5-(methylsulfinyl)-1,3,4-oxadiazol-2-yl]phenyl]benzenamine], the results for the IC50 against 5-Lipoxygenase and in the assay with Cyclooxygenase (Table 2) were 910 nM and 1790 nM, respectively.
As for `Cc1ccc(Cl)c(Nc2ccccc2-c2nnco2)c1Cl` [Example 18, 2,6-Dichloro-3-methyl-N-[2-(1,3,4-oxadiazol-2-yl)phenyl]benzenamine], on 5-Lipoxygenase, the “ARBL, activity at the screening dose” value was “N”. Also, in the assay with Cyclooxygenase (class symbol N), the “ARBC, activity at the screening dose” value is recorded as “N”.
Take `Cc1ccc(Cl)c(Nc2ccccc2-c2nnc(N)s2)c1Cl` [Example 4, 5-[2-[(2,6-Dichloro-3-methylphenyl)amino]phenyl]-1,3,4-thiadiazol-2-amine]: the IC50 against 5-Lipoxygenase amounted to 600 nM; with Cyclooxygenase (Table 1, footnote c) it was 6100 nM; in the assay with Cyclooxygenase (Table 2), 6100 nM.
As for `Cc1ccc(Cl)c(Nc2ccccc2-c2nnc(NC#N)o2)c1Cl` [Example 23, 5-[2-[(2,6-Dichloro-3-methylphenyl)amino]phenyl]-1,3,4-oxadiazol-2-yl-cyanamide], the values for the IC50 against 5-Lipoxygenase and with Cyclooxygenase (Table 2) were 890 nM and 250 nM, respectively.
On to `C[S+]([O-])c1nnc(-c2ccccc2Nc2cccc(C(F)(F)F)c2)s1` (stereo not shown) [Example 31], for which the inhibition at 10 µM on 5-Lipoxygenase (setting [2]) stood at 100%. In the assay on Cyclooxygenase (Table 2, @ 10 μM), the “ARBC, % inhibition at given concentration” value is given as 51%.
`CS(=O)(=O)c1nnc(-c2ccccc2Nc2cccc(C(F)(F)F)c2)o1` [Example 25, N-[2-[5-(Methylsulfonyl)-1,3,4-oxadiazol-2-yl]phenyl]-3-trifluoromethyl benzenamine]: at 5-Lipoxygenase, the “ARBL, activity at the screening dose” value is given as “N”. Further, in the assay on Cyclooxygenase (Table 2, @ 10 μM), the “ARBC, % inhibition at given concentration” value was found to be 48%.
Regarding `Cc1ccc(Cl)c(Nc2ccccc2-c2nnc([S+](C)[O-])s2)c1Cl` (stereo not shown) [Example 29, 2,6-Dichloro-3-methyl-N-[2-[5-(methylsulfinyl)-1,3,4-thiadiazol-2-yl]phenyl]benzenamine], the 50% inhibitory concentration (IC50) turned out to be 3300 nM on 5-Lipoxygenase and 8480 nM in the assay with Cyclooxygenase (Table 2).
As for `Cc1cccc(Nc2ccccc2-c2n[nH]c(=O)o2)c1C` [Example 8, 5-[2-[(2,3-Dimethylphenyl)amino]phenyl]-1,3,4-oxadiazol-2(3H)-one], at 5-Lipoxygenase, the “ARBL, activity at the screening dose” value is reported as “N”. In addition, in the assay on Cyclooxygenase (class symbol N), the “ARBC, activity at the screening dose” value was “N”.
Consider `Cc1ccc(Cl)c(Nc2ccccc2-c2n[nH]c(=S)s2)c1Cl` [Example 5, 5-[2-[(2,6-Dichloro-3-methylphenyl)amino]phenyl]-1,3,4-thiadiazol-2(3H)-thione], for which the inhibition at 16 µM at 5-Lipoxygenase (Table 2, @ 16 μM, read-out: ARBL, % inhibition at given concentration) was 100%. Besides, the “ARBC, % inhibition at given concentration” value in the assay with Cyclooxygenase (Table 2, @ 16 μM) was determined as 47%.
As for `Cc1ccc(Cl)c(Nc2ccccc2-c2nnc(S(C)(=O)=O)o2)c1Cl` [Example 20, 2,6-Dichloro-3-methyl-N-[2-[5-(methylsulfonyl)-1,3,4-oxadiazol-2-yl]phenyl]benzenamine], the IC50 against 5-Lipoxygenase was found to be 6320 nM; with Cyclooxygenase (Table 2) it was 3000 nM.
`Nc1nnc(-c2ccccc2Nc2cccc(C(F)(F)F)c2)o1` [Example 16, 5-[2-[[3-(Trifluoromethyl)phenyl]amino]phenyl]-1,3,4-oxadiazol-2-amine]: the results for the IC50 against 5-Lipoxygenase and in the assay with Cyclooxygenase (Table 2) were 680 nM and 7120 nM, respectively.
In the assay with Cyclooxygenase (Table 2), `N#CNc1nnc(-c2ccccc2Nc2cccc(C(F)(F)F)c2)o1` [Example 26, 5-[2-[[3-(Trifluoromethyl)phenyl]amino]phenyl]-1,3,4-oxadiazol-2-yl-cyanamide] gave an IC50 of 1040 nM.
Consider `Cc1ccc(Cl)c(Nc2ccccc2-c2n[nH]c(=S)o2)c1Cl` [Example 2, 5-[2-[(2,6-Dichloro-3-methylphenyl)amino]phenyl]-1,3,4-oxadiazol-2(3H)-thione], for which the inhibition at 16 µM at 5-Lipoxygenase (setting [1]) amounted to 97%. The IC50 turned out to be 740 nM against 5-Lipoxygenase; 700 nM in the assay with Cyclooxygenase (Table 1, footnote c); 700 nM with Cyclooxygenase (Table 2).
With `CSc1nnc(-c2ccccc2Nc2c(Cl)ccc(C)c2Cl)o1` [Example 19, 2,6-Dichloro-3-methyl-N-[2-[5-(methylthio)-1,3,4-oxadiazol-2-yl]phenyl]benzenamine], the “ARBL, activity at the screening dose” value on 5-Lipoxygenase is recorded as “N”. Moreover, in the assay on Cyclooxygenase (Table 2, @ 10 μM), the “ARBC, % inhibition at given concentration” value was 55%.
For the molecule `Cc1ccc(Cl)c(Nc2ccccc2-c2n[nH]c(=O)o2)c1Cl` [Example 1], the “ARBL, activity at the screening dose” value at 5-Lipoxygenase was “N”. Moreover, in the assay with Cyclooxygenase (class symbol N), the “ARBC, activity at the screening dose” value is “N”.
Consider `Nc1nnc(-c2ccccc2Nc2cccc(C(F)(F)F)c2)s1` [Example 10, 5-[2-[(3-Trifluoromethylphenyl)amino]phenyl]-1,3,4-thiadiazol-2-amine], for which the IC50 on 5-Lipoxygenase came to 690 nM; with Cyclooxygenase (Table 2), 11000 nM.
Regarding `N=C(N)Nc1nnc(-c2ccccc2Nc2cccc(C(F)(F)F)c2)o1` [Example 27, 5-[2-[[3-(Trifluoromethyl)phenyl]amino]phenyl]-1,3,4-oxadiazol-2-yl-guanidine hydrochloride], the inhibition at 10 µM on 5-Lipoxygenase (setting [2]) was 100%. The “ARBC, activity at the screening dose” value in the assay on Cyclooxygenase (class symbol N) is reported as “N”.
Regarding `CSc1nnc(-c2ccccc2Nc2cccc(C(F)(F)F)c2)s1` [Example 30, 3-Trifluoromethyl-N-[2-[5-(methylthio)-1,3,4-thiadiazol-2-yl]phenyl]benzenamine], on 5-Lipoxygenase (setting [2]), the inhibition at 10 µM was 66%. For the same molecule, in the assay with Cyclooxygenase (Table 2, @ 10 μM), the “ARBC, % inhibition at given concentration” value is 44%.
`CSc1nnc(-c2ccccc2Nc2c(Cl)ccc(C)c2Cl)s1` [Example 28, 2,6-Dichloro-3-methyl-N-[2-[5-(methylthio)-1,3,4-thiadiazol-2-yl]phenyl]benzenamine]: the “ARBL, activity at the screening dose” value at 5-Lipoxygenase is “N”. The “ARBC, % inhibition at given concentration” value in the assay on Cyclooxygenase (Table 2, @ 10 μM) is on record as 60%.
Consider `Cc1ccc(Cl)c(Nc2ccccc2-c2nnc(N)o2)c1Cl` [Example 17, 5-[2-[[2,6-Dichloro-3-methylphenyl]amino]phenyl]-1,3,4-oxadiazol-2-amine], for which the inhibition at 10 µM on 5-Lipoxygenase (setting [2]) came to 45%. In addition, the “ARBC, activity at the screening dose” value in the assay with Cyclooxygenase (class symbol N) is listed as “N”.
As to `CSc1nnc(-c2ccccc2Nc2cccc(C(F)(F)F)c2)o1` [Example 24, N-[2-[5-(Methylthio)-1,3,4-oxadiazol-2-yl]phenyl]-3-trifluoromethyl benzenamine], the “ARBL, activity at the screening dose” value at 5-Lipoxygenase is “N”. Besides, the “ARBC, % inhibition at given concentration” value in the assay on Cyclooxygenase (Table 2, @ 10 μM) came out at 44%.
As to `Cc1ccc(Cl)c(Nc2ccccc2-c2nnc(NC(=N)N)o2)c1Cl` [Example 22, 5-[2-[(2,6-dichloro-3-methylphenyl)amino]phenyl]-1,3,4-oxadiazol-2-yl-guanidine monohydrochloride], on 5-Lipoxygenase (setting [2]), the inhibition at 10 µM was found to be 46%. Besides, the “ARBC, activity at the screening dose” value in the assay on Cyclooxygenase (class symbol N) is “N”.
Molecule `Cc1cccc(Nc2ccccc2-c2n[nH]c(=S)o2)c1C` [Example 9, 5-[2-[(2,3-Dimethylphenyl)amino]phenyl]-1,3,4-oxadiazole-2(3H)-thione] showed an IC50 against 5-Lipoxygenase of 1000 nM.

As usually defined, the IC50 is the concentration needed to halve the response being measured.
